Laboratory results published in patent US4485109A, “4-Aryl-4-piperidinecarbinols” (E. I. Du Pont de Nemours and Company, priority 1983, dated 1984).
Where two headings read alike, the source gives them in different places.

Legend:
[1] = Anorexia test from CNS screen (milk consumption in fasted mice); type: in vivo; settings: fasted female mice, 0.5 h after dosing, 30 min milk access, ED50 estimated from quantal responses; for ED50: Mus musculus, po, 0.5 h
Protocol: Female mice weighing 16-20 grams and fasted overnight for 17-21 h are used in these studies. At 0.5 h after administration of graded oral doses of compound prepared in aqueous Methocel® (methylcellulose, viscosity 100 CPS, grade MC, Dow Chemical Co.) and 2.8% Tween 80 and dosed at 0.1 mL per 10 grams of body weight, each mouse is transferred to an individual, clear, Lucite® compartment (13.3 cm×12.7 cm×12.7 cm) with a 0.64 cm×0.64 cm wire mesh floor. Five compartments are linearly arranged in each cage unit. Inside each compartment is a section of a black Lucite® bar (13 cm×1.2 cm×1.2 cm), in the top of which are ten spot depressions (0.8 cm diameter), each containing 0.05 mL of 50% sweetened condensed milk (Borden's Eagle Brand). 30 Minutes later the mice are returned to the "shoe-box" containers and the number of milk spots consumed by each mouse is counted. Fractions of spots consumed are also estimated and counted. Five mice […] per drug dose can drink a maximum of 50 spots (2.5 mL of milk). Nine or fewer spots consumed by 5 mice is considered to indicate anorexia. ED50 values are estimated based on the quantal responses obtained.

[2] = tested on: tetrabenazine-induced depression; assay: Antagonism (prevention) of tetrabenazine-induced sedation and depression in mice, orally; type: in vivo, mice (Carworth CF1 S female); settings: tetrabenazine 32 mg/kg i.p. 30 min after compound; for ED50: Mus musculus, po, 1 h
Source text: A standard procedure for detecting and comparing the antidepressant activity of the compounds of this invention, for which there is good correlation with human efficacy, is the prevention of tetrabenazine-induced sedation and depression in mice. (Everett, "The Dopa Response Potentiation Test and Its Use in Screening for Antidepressant Drugs", pp. 164-167 in Antidepressant Drugs [Proceedings of the First International Symposium], S. Garattini and M. N. G. Dukes (editors), 1967).
Groups of 10 Carworth CF1 S female mice, 18-21 g each, each fasted 1.5 h and were intubated with antagonist compounds at oral doses, such as 0, 1, 3, 9, 27 and 81 mg/kg in 0.20 mL of 1% Methocel® (methylcellulose).The mice were challenged 30 minutes later with tetrabenazine (as the methanesulfonate), 32 mg/kg intraperitoneally (dissolved in 0.20 mL 0.05% aqueous KCl at pH 2.0). One hour after administration of antagonist (30 minutes after administration of tetrabenazine) the mice were examined for signs of exploratory activity and ptosis (eye lid closure). Normal exploratory activity (relief from sedation) was recorded when a mouse, lifted by the tail from a group of 10 in a testing box and placed on a stainless steel testing box lid (12.5 inch (31.8 cm) by 8 inch (20.3 cm) with 0.33 inch mesh), either turned its head horizontally 30° in both directions or moved to the edge of the screen within 10 seconds after being placed on the screen. Relief from ptosis was recorded when, at exactly two seconds after placing the mouse facing the observer, lid closure was less than 50% in both eyes.

[3] = tested on: tetrabenazine-induced depression; assay: as above; type: in vivo, mice (Carworth CF1 S female); settings: Mus musculus, po, footnote *: peak time values
[4] = read-out: ORAL ED50 for prevention of exploratory loss, mice, oral, at one hour post-drug
[5] = read-out: ORAL ED50 for prevention of ptosis, mice, oral, at one hour post-drug
[6] = mice, oral, at one hour post-drug, 60 min

CN1CCC(c2cccc(Cl)c2)(C(C)(C)O)CC1 [Example 6, 4-(3'-Chlorophenyl)-α,α,1-trimethyl-4-piperidinemethanol]
ED50 [1]: 60 mg/kg | ED50 [2, 4]: 0.04 mg/kg | ED50 [2, 5]: 0.03 mg/kg

CN1CCC(c2ccc(Oc3ccccc3)cc2)(C(C)(C)O)CC1 [Example 32, 4-(4'-Phenoxyphenyl)-α,α,1-trimethyl-4-piperidinemethanol]
ED50 [1]: 60 mg/kg | ED50 [2, 4]: > 81 mg/kg | ED50 [2, 5]: 81 mg/kg

Cc1cccc(C2(C(C)(C)O)CCN(C)CC2)c1 [Example 10, 4-(3'-Tolyl)-α,α,1-trimethyl-4-piperidinemethanol]
ED50 [1]: 20 mg/kg | ED50 [2, 4]: 0.04 mg/kg | ED50 [2, 5]: 0.04 mg/kg

CN1CCC(c2cccc(F)c2)(C(C)(C)O)CC1 [Example 4, 4-(3'-Fluorophenyl)-α,α,1-trimethyl-4-piperidinemethanol]
ED50 [1]: 60 mg/kg | ED50 [2, 4]: 0.2 mg/kg | ED50 [2, 5]: 0.12 mg/kg

COc1ccc2cc(C3(C(C)(C)O)CCN(C)CC3)ccc2c1 [Example 39, 4-(6'-Methoxy-2'-naphthyl)-α,α,1-trimethyl-4-piperidinemethanol]
ED50 [1]: 60 mg/kg | ED50 [2, 4]: 0.33 mg/kg | ED50 [2, 5]: < 0.33 mg/kg

CN1CCC(c2cccc(C(F)(F)F)c2)(C2(O)CCCC2)CC1 [Example 30, 1-[1'-Methyl-4'-(3"-trifluoromethylphenyl)-4'-piperidinyl]cyclopentanol]
ED50 [1]: 60 mg/kg | ED50 [2, 4]: 0.17 mg/kg | ED50 [2, 5]: 0.084 mg/kg

CCC(O)(CC)C1(c2cccc(Cl)c2)CCN(C)CC1 [Example 8, 4-(3'-Chlorophenyl)-α,α-diethyl-1-methyl-4-piperidinemethanol]
ED50 [1]: 20 mg/kg | ED50 [2, 4]: 0.29 mg/kg | ED50 [2, 5]: 0.26 mg/kg

CCC(C)(O)C1(c2cccc(C(F)(F)F)c2)CCN(C)CC1 (stereo not drawn) [Example 31, 4-(3'-Trifluoromethylphenyl)-α,1-dimethyl-α-ethyl-4-piperidinemethanol]
ED50 [1]: 20 mg/kg | ED50 [2, 4]: 0.064 mg/kg | ED50 [2, 5]: 0.056 mg/kg

COc1cccc(C2(C(C)(C)O)CCN(Cc3ccccc3)CC2)c1OC [Example 37, 4-(2',3'-Dimethoxyphenyl)-1-benzyl-α,α-dimethyl-4-piperidinemethanol]
ED50 [1]: 60 mg/kg | ED50 [2, 4]: > 81 mg/kg | ED50 [2, 5]: 81 mg/kg

CCC(C)(O)C1(c2cccc(OC)c2)CCN(C)CC1 (stereo not drawn) [Example 17, 4-(3'-Methoxyphenyl)-α,1-dimethyl-α-ethyl-4-piperidinemethanol]
ED50 [1]: 60 mg/kg | ED50 [2, 4]: 0.1 mg/kg | ED50 [2, 5]: 0.11 mg/kg

CN1CCC(c2ccc(Cl)cc2)(C(C)(C)O)CC1 [Example 7, 4-(4'-Chlorophenyl)-α,α,1-trimethyl-4-piperidinemethanol]
ED50 [1]: 20 mg/kg | ED50 [2, 4]: 0.57 mg/kg | ED50 [2, 5]: 0.33 mg/kg

CN1CCC(c2cccc(C(F)(F)F)c2)(C(C)(C)O)CC1 [Example 2A, 4-(3'-Trifluoromethylphenyl)-α,α,1-trimethyl-4-piperidinemethanol]
ED50 for anorexia ([1]; oral): 36 mg/kg | ORAL ED50 for prevention of exploratory loss [2, 6]: 0.01 mg/kg | ORAL ED50 for prevention of ptosis [2, 6]: 0.014 mg/kg

CCN1CCC(c2cccc(C(F)(F)F)c2)(C(C)(C)O)CC1 [Example 41, 4-(3'-Trifluoromethylphenyl)-α,α-dimethyl-1-ethyl-4-piperidinemethanol]
ED50 [1]: 60 mg/kg | ED50 [2, 4]: 0.73 mg/kg | ED50 [2, 5]: 0.46 mg/kg

COc1cccc(C2(C(C)(C)O)CCN(C)CC2)c1 [Example 16, 4-(3'-Methoxyphenyl)-α,α,1-trimethyl-4-piperidinemethanol]
ED50 ([3]; read-out: ORAL ED50 for prevention of exploratory loss (peak time value), mice, oral): 0.12 mg/kg | ED50 ([3]; read-out: ORAL ED50 for prevention of ptosis (peak time value), mice, oral): 0.077 mg/kg | ED50 [1]: 60 mg/kg
